From patent US20070128217A1 (priority 2003, published 2007)

Columns and labels:
[1] = test system: antibodies in sera from SARS patients (sera 1a, 1b, 2, 6, 37, 62, London, SARS-yellow, SARS-green); type: binding, human; design: Binding of serum 6 to linear peptides of protein X1 of SARS-CoV Urbani / Binding of serum 37 to linear peptides of protein X1 of SARS-CoV Urbani / Binding of serum 6 to looped/cyclic peptide (PEPSCAN-ELISA) / Binding of serum 37 to looped/cyclic peptide (PEPSCAN-ELISA) / Binding of serum 37 to looped/cyclic peptides of protein X1 of SARS-CoV Urbani / Binding of serum 6 to linear peptides of protein X2 / Binding of serum 37 to linear peptides of protein X2 / Binding of serum 37 to looped/cyclic peptides of protein X2 of SARS-CoV Urbani / Binding of serum 6 to linear peptides of protein M of SARS-CoV Urbani / Binding of serum 37 to linear peptides of protein M of SARS-CoV Urbani / Binding of serum 6 to looped/cyclic peptides of protein M of SARS-CoV Urbani / Binding of serum 37 to looped/cyclic peptides of protein M of SARS-CoV Urbani / Binding of serum 6 to linear peptides of protein X3 of SARS-CoV Urbani / Binding of serum 37 to linear peptides of protein X3 of SARS-CoV Urbani / Binding of serum 37 to looped/cyclic peptides of protein X3 of SARS-CoV Urbani / Binding of serum 6 to linear peptides of protein X4 of SARS-CoV Urbani / Binding of serum 37 to linear peptides of protein X4 of SARS-CoV Urbani / Binding of serum 37 to looped/cyclic peptides of protein X4 of SARS-CoV Urbani / Binding of serum 6 to linear peptides of protein X5 of SARS-CoV Urbani / Binding of serum 37 to linear peptides of protein X5 of SARS-CoV Urbani / Binding of serum 37 to looped/cyclic peptides of protein X5 of SARS-CoV Urbani / Binding of serum 6 to linear peptides of protein N of SARS-CoV Urbani / Binding of serum 37 to linear peptides of protein N of SARS-CoV Urbani / Binding of serum 6 to linear peptide (PEPSCAN-ELISA) / Binding of serum 1a to looped/cyclic peptides of protein N of SARS-CoV Urbani / Binding of serum 1b to looped/cyclic peptides of protein N of SARS-CoV Urbani / Binding of serum 2 to looped/cyclic peptides of protein N of SARS-CoV Urbani / Binding of serum 6 to looped/cyclic peptides of protein N of SARS-CoV Urbani / Binding of serum 37 to looped/cyclic peptides of protein N of SARS-CoV Urbani / Binding of serum 62 to looped/cyclic peptides of protein N of SARS-CoV Urbani / Binding of serum London to looped/cyclic peptides of protein N of SARS-CoV Urbani / Binding of serum SARS-green to looped/cyclic peptides of protein N of SARS-CoV Urbani: unit not given here
[2] = test system: rabbit serum obtained by immunizing a rabbit with the SARS-CoV strain Frankfurt 1; type: binding; design: Binding of a rabbit serum to linear peptides / Binding of a rabbit serum to looped peptides / Rabbit serum linear peptides / Rabbit serum looped peptides / Binding of a rabbit serum to linear peptides of protein N of SARS-CoV Urbani (Rabbit serum linear peptides) / Binding of a rabbit serum to looped/cyclic peptides of protein N of SARS-CoV Urbani (Rabbit serum looped peptides): unit not given here
[3] = test system: control sera (pooled serum of ten healthy LUMC hospital workers; commercial negative donor pooled serum from the Dutch bloodbank); type: binding, human; design: Binding of Control serum LUMC to linear peptides / Binding of Control serum Blood-bank to linear peptides / Binding of Control serum LUMC to looped peptides / Binding of Control Serum Blood-Bank to Looped peptides / Binding of Control serum LUMC to linear peptides of the protein M of SARS-CoV Urbani / Binding of Control serum Blood-bank to linear peptides of the protein M of SARS-CoV Urbani / Binding of Control serum LUMC to looped peptides of the protein M of SARS-CoV Urbani / Binding of Control Serum Blood-Bank to Looped peptides of the protein M of SARS-CoV Urbani: unit not given here

## TNILLNVPLRGTIVT
[1]
  Binding of serum 1a to linear peptides of protein M of SARS-CoV Urbani: 0.6
  Binding of serum 1a to looped/cyclic peptides of protein M of SARS-CoV Urbani: 0.6
  Binding of serum 1b to linear peptides of protein M of SARS-CoV Urbani: 0.5
  Binding of serum 1b to looped/cyclic peptides of protein M of SARS-CoV Urbani: 0.4
  Binding of serum 2 to linear peptides of protein M of SARS-CoV Urbani: 0.6
  Binding of serum 2 to looped/cyclic peptides of protein M of SARS-CoV Urbani: 0.6
  Binding of serum 6 to linear peptides of protein M of SARS-CoV Urbani: 0.4
  Binding of serum 6 to looped/cyclic peptides of protein M of SARS-CoV Urbani: 0.8
  Binding of serum 37 to linear peptides of protein M of SARS-CoV Urbani: 0.4
  Binding of serum 37 to looped/cyclic peptides of protein M of SARS-CoV Urbani: 0.7
  Binding of serum 62 to linear peptides of protein M of SARS-CoV Urbani: 0.5
  Binding of serum 62 to looped/cyclic peptides of protein M of SARS-CoV Urbani: 0.6
  Binding of serum London to linear peptides of protein M of SARS-CoV Urbani: 0.3
  Binding of serum London to looped/cyclic peptides of protein M of SARS-CoV Urbani: 0.2
  Binding of serum SARS-green to linear peptides of protein M of SARS-CoV Urbani: 0.5
  Binding of serum SARS-green to looped/cyclic peptides of protein M of SARS-CoV Urbani: 0.2
  Binding of serum SARS-yellow to linear peptides of protein M of SARS-CoV Urbani: 0.2
  Binding of serum SARS-yellow to looped/cyclic peptides of protein M of SARS-CoV Urbani: 0.4
[2]
  Rabbit serum linear peptides: 0.2
  Rabbit serum looped peptides: 0.1
[3]
  Binding of Control Serum Blood-Bank to Looped peptides of the protein M of SARS-CoV Urbani: 0.8
  Binding of Control serum Blood-bank to linear peptides of the protein M of SARS-CoV Urbani: 0.8
  Binding of Control serum LUMC to linear peptides of the protein M of SARS-CoV Urbani: 0.7
  Binding of Control serum LUMC to looped peptides of the protein M of SARS-CoV Urbani: 0.6

## VYHITVSQIQLSLLK
[1]
  Binding of serum 1a to linear peptides of protein X2: 0.6
  Binding of serum 1a to looped/cyclic peptides of protein X2 of SARS-CoV Urbani: 0.5
  Binding of serum 1b to linear peptides of protein X2: 0.5
  Binding of serum 1b to looped/cyclic peptides of protein X2 of SARS-CoV Urbani: 0.2
  Binding of serum 2 to linear peptides of protein X2: 0.5
  Binding of serum 2 to looped/cyclic peptides of protein X2 of SARS-CoV Urbani: 0.2
  Binding of serum 6 to linear peptides of protein X2: 0.5
  Binding of serum 6 to looped/cyclic peptides of protein X2 of SARS-CoV Urbani: 0.6
  Binding of serum 37 to linear peptides of protein X2: 0.7
  Binding of serum 37 to looped/cyclic peptides of protein X2 of SARS-CoV Urbani: 0.4
  Binding of serum 62 to linear peptides of protein X2: 0.4
  Binding of serum 62 to looped/cyclic peptides of protein X2 of SARS-CoV Urbani: 0.6
  Binding of serum London to linear peptides of protein X2: 0.4
  Binding of serum London to looped/cyclic peptides of protein X2 of SARS-CoV Urbani: 1.3
  Binding of serum SARS-green to linear peptides of protein X2: 0.2
  Binding of serum SARS-green to looped/cyclic peptides of protein X2 of SARS-CoV Urbani: 0.3
  Binding of serum SARS-yellow to linear peptides of protein X2: 0.7
  Binding of serum SARS-yellow to looped/cyclic peptides of protein X2 of SARS-CoV Urbani: 0.3
[2]
  Binding of a rabbit serum to linear peptides: 0.9
  Binding of a rabbit serum to looped peptides: 0.4
[3]
  Binding of Control Serum Blood-Bank to Looped peptides: 0.6
  Binding of Control serum Blood-bank to linear peptides: 0.5
  Binding of Control serum LUMC to linear peptides: 0.7
  Binding of Control serum LUMC to looped peptides: 0.4

## SKNPLLYDANYFVCW
[1]
  Binding of serum 1a to linear peptides of protein X1 of SARS-CoV Urbani: 0.7
  Binding of serum 1a to looped/cyclic peptide (PEPSCAN-ELISA): 0.6
  Binding of serum 1b to linear peptides of protein X1 of SARS-CoV Urbani: 0.5
  Binding of serum 1b to looped/cyclic peptide (PEPSCAN-ELISA): 0.5
  Binding of serum 2 to linear peptides of protein X1 of SARS-CoV Urbani: 0.4
  Binding of serum 2 to looped/cyclic peptide (PEPSCAN-ELISA): 0.5
  Binding of serum 6 to linear peptides of protein X1 of SARS-CoV Urbani: 0.5
  Binding of serum 6 to looped/cyclic peptide (PEPSCAN-ELISA): 0.4
  Binding of serum 37 to linear peptides of protein X1 of SARS-CoV Urbani: 0.5
  Binding of serum 37 to looped/cyclic peptide (PEPSCAN-ELISA): 0.6
  Binding of serum 62 to linear peptides of protein X1 of SARS-CoV Urbani: 0.4
  Binding of serum 62 to looped/cyclic peptide (PEPSCAN-ELISA): 0.6
  Binding of serum London to linear peptides of protein X1 of SARS-CoV Urbani: 0.2
  Binding of serum London to looped/cyclic peptide (PEPSCAN-ELISA): 0.2
  Binding of serum SARS-green to linear peptides of protein X1 of SARS-CoV Urbani: 0.2
  Binding of serum SARS-green to looped/cyclic peptide (PEPSCAN-ELISA): 0.4
  Binding of serum SARS-yellow to linear peptides of protein X1 of SARS-CoV Urbani: 0.4
  Binding of serum SARS-yellow to looped/cyclic peptide (PEPSCAN-ELISA): 0.5
[2]
  Binding of a rabbit serum to linear peptides: 0.1
  Binding of a rabbit serum to looped peptides: 0.6
[3]
  Binding of Control Serum Blood-Bank to Looped peptides: 0.6
  Binding of Control serum Blood-bank to linear peptides: 0.4
  Binding of Control serum LUMC to linear peptides: 0.5
  Binding of Control serum LUMC to looped peptides: 0.6

## KFTTSLSLHKLLQTL
[1]
  Binding of serum 1a to linear peptides of protein X2: 0.5
  Binding of serum 1a to looped/cyclic peptides of protein X2 of SARS-CoV Urbani: 0.5
  Binding of serum 1b to linear peptides of protein X2: 0.4
  Binding of serum 1b to looped/cyclic peptides of protein X2 of SARS-CoV Urbani: 0.4
  Binding of serum 2 to linear peptides of protein X2: 0.4
  Binding of serum 2 to looped/cyclic peptides of protein X2 of SARS-CoV Urbani: 0.5
  Binding of serum 6 to linear peptides of protein X2: 0.6
  Binding of serum 6 to looped/cyclic peptides of protein X2 of SARS-CoV Urbani: 0.4
  Binding of serum 37 to linear peptides of protein X2: 0.5
  Binding of serum 37 to looped/cyclic peptides of protein X2 of SARS-CoV Urbani: 0.5
  Binding of serum 62 to linear peptides of protein X2: 0.6
  Binding of serum 62 to looped/cyclic peptides of protein X2 of SARS-CoV Urbani: 0.5
  Binding of serum London to linear peptides of protein X2: 0.5
  Binding of serum London to looped/cyclic peptides of protein X2 of SARS-CoV Urbani: 0.6
  Binding of serum SARS-green to linear peptides of protein X2: 0.4
  Binding of serum SARS-green to looped/cyclic peptides of protein X2 of SARS-CoV Urbani: 0.4
  Binding of serum SARS-yellow to linear peptides of protein X2: 0.5
  Binding of serum SARS-yellow to looped/cyclic peptides of protein X2 of SARS-CoV Urbani: 0.3
[2]
  Binding of a rabbit serum to linear peptides: 0.2
  Binding of a rabbit serum to looped peptides: 0.4
[3]
  Binding of Control Serum Blood-Bank to Looped peptides: 0.5
  Binding of Control serum Blood-bank to linear peptides: 0.6
  Binding of Control serum LUMC to linear peptides: 0.4
  Binding of Control serum LUMC to looped peptides: 0.5

## QLSLLKVTAFQHQNS
[1]
  Binding of serum 1a to linear peptides of protein X2: 0.5
  Binding of serum 1a to looped/cyclic peptides of protein X2 of SARS-CoV Urbani: 0.5
  Binding of serum 1b to linear peptides of protein X2: 0.4
  Binding of serum 1b to looped/cyclic peptides of protein X2 of SARS-CoV Urbani: 0.5
  Binding of serum 2 to linear peptides of protein X2: 0.3
  Binding of serum 2 to looped/cyclic peptides of protein X2 of SARS-CoV Urbani: 0.3
  Binding of serum 6 to linear peptides of protein X2: 0.4
  Binding of serum 6 to looped/cyclic peptides of protein X2 of SARS-CoV Urbani: 0.3
  Binding of serum 37 to linear peptides of protein X2: 0.5
  Binding of serum 37 to looped/cyclic peptides of protein X2 of SARS-CoV Urbani: 0.4
  Binding of serum 62 to linear peptides of protein X2: 0.3
  Binding of serum 62 to looped/cyclic peptides of protein X2 of SARS-CoV Urbani: 0.6
  Binding of serum London to linear peptides of protein X2: 0.3
  Binding of serum London to looped/cyclic peptides of protein X2 of SARS-CoV Urbani: 0.3
  Binding of serum SARS-green to linear peptides of protein X2: 0.1
  Binding of serum SARS-green to looped/cyclic peptides of protein X2 of SARS-CoV Urbani: 0.2
  Binding of serum SARS-yellow to linear peptides of protein X2: 0.1
  Binding of serum SARS-yellow to looped/cyclic peptides of protein X2 of SARS-CoV Urbani: 0.3
[2]
  Binding of a rabbit serum to linear peptides: 0.6
  Binding of a rabbit serum to looped peptides: 0.5
[3]
  Binding of Control Serum Blood-Bank to Looped peptides: 0.5
  Binding of Control serum Blood-bank to linear peptides: 0.4
  Binding of Control serum LUMC to linear peptides: 0.6
  Binding of Control serum LUMC to looped peptides: 0.6
